Test results reported in patent US10072017B2, “Compounds and methods for the treatment of cystic fibrosis” (Flatley Discovery Lab, LLC, priority 2015, dated 2018).

Target: T1, CFTR (Homo sapiens, UniProt P13569, DEL508-508)
T1 construct: Primary CF airway epithelial cells were obtained from the UNC Cystic Fibrosis Tissue Procurement and Cell Culture Core; host or cells: primary CF airway epithelial cells
Test: Equivalent current assay in Primary CF airway epithelial cells (NAUC)
Format: cell-based
Conditions: 24 h, normalized to VX809 (3 μM) positive control; for Nauc @ 3 μM: 3 μM test compound; for Nauc @ 10 μM: 10 μM test compound
Description: Primary CF airway epithelial cells were obtained from the UNC Cystic Fibrosis Tissue Procurement and Cell Culture Core. The cells are grown at 37° C. in a Heracell 150i incubator using growth media (BEGM, Fischer). Cells were then transferred to differentiation media (ALI, UNC) for a minimum of 4 weeks on coated Costar snapwells. Two days before the Ussing assay the mucus on the apical surface of the cells was aspirated after incubating with 200 μL of differentiation Media for at least thirty (30) minutes. One day before the Ussing assay test compounds were added to the basolateral surface of the cells at various test concentrations dissolved in DMSO. Duplicate wells were prepared giving a n=3 or n=4 protocol.
Cells were treated for 24 hours with various combinations and concentrations of the test articles, reference standard (3 μM VX809, positive control). Compounds stock solutions were prepared in DMSO and diluted 1/1000 into ALI media to their final assay concentration. Cells were treated with combination solutions (2 mL of each dilution) and incubated at 37° C. for 24 h.
For the equivalent current assay, cells on four Transwell (24-well) plates were treated. Each Transwell plate was filled with 200 μl of HBS on the apical surface and 2 ml on the basolateral surface. Plates were placed horizontally in a heated mount at 37° C., and equilibrated for several minutes. Resting current was measured for 15 min and then blocked by the apical addition of 5 μM benzamil. After 20 min, 10 μM forskolin and 1 μM VX770 were added to both the apical and basolateral side to stimulate CFTR. An increase in chloride current is seen as an upward deflection of the trace. After another 30 min, CFTR-172 (a CFTR inhibitor, 20 μM) and/or bumetanide (20 uM) was added to block CFTR mediated chloride current.
The raw data, current vs. time for the Ussing chamber (sampling interval: 10 s) and voltage vs. time and resistance vs. time for the equivalent current assay (sampling interval: 5 minutes) were transferred to Excel (Microsoft Office Professional, version 14.0.7106.5003) for analysis. CFTR specific current was measured as the average amplitude of the increase in current elicited upon addition forskolin and ending upon addition of the CFTR channel specific blocker CFTR-172. This average is equivalent to the sum of the average forskolin activated and the average VX770-potentiated currents. The average current measured in vehicle (0.1% DMSO) treated cells, Iv, was subtracted from the current for the test article, ITA, or from the corrector reference standard VX809 (3 uM ISTD. For replicate measurements, the average vehicle subtracted response for the test article, was normalized to the average vehicle subtracted inhibitor response of the reference corrector VX809 (3 μM). INSC=(ITA−IV)(ave)/(ISTD−IV)(ave) (Equation 1)
A second endpoint, for the equivalent current assay, evaluated was NAUC, the normalized area under the curve (AUC) measuring the response after addition of forskolin and VX770 to the time point right before the addition of the CFTR inhibitor. The AUC is effectively the average response multiplied by the duration of the response. The AUC of the test article, AUCTA was then corrected by subtracting the average vehicle response, AUCV,ave over the same time range, and normalized as for the inhibitor-sensitive current to the difference of the corrector reference standard VX809 (3 μM VX809r,ave and the vehicle response: NAUCTA=[AUCTA−AUCV,ave]/[AUCVx809r,ave−AUCV,ave] (Equation 2).
The normalized value for DMSO is 0.0 and for VX-809 alone is 1.0. Combinations of compounds with VX-809 that give normalized values greater than 1.0 show activity in the combination assay. A value of 2 means the test compound doubles the effect to VX-809 alone.
Experiments were run with a minimum of n=4 replicates per concentration. […]

T1 sequence (P13569 with tags, fused parts or gaps DEL508-508): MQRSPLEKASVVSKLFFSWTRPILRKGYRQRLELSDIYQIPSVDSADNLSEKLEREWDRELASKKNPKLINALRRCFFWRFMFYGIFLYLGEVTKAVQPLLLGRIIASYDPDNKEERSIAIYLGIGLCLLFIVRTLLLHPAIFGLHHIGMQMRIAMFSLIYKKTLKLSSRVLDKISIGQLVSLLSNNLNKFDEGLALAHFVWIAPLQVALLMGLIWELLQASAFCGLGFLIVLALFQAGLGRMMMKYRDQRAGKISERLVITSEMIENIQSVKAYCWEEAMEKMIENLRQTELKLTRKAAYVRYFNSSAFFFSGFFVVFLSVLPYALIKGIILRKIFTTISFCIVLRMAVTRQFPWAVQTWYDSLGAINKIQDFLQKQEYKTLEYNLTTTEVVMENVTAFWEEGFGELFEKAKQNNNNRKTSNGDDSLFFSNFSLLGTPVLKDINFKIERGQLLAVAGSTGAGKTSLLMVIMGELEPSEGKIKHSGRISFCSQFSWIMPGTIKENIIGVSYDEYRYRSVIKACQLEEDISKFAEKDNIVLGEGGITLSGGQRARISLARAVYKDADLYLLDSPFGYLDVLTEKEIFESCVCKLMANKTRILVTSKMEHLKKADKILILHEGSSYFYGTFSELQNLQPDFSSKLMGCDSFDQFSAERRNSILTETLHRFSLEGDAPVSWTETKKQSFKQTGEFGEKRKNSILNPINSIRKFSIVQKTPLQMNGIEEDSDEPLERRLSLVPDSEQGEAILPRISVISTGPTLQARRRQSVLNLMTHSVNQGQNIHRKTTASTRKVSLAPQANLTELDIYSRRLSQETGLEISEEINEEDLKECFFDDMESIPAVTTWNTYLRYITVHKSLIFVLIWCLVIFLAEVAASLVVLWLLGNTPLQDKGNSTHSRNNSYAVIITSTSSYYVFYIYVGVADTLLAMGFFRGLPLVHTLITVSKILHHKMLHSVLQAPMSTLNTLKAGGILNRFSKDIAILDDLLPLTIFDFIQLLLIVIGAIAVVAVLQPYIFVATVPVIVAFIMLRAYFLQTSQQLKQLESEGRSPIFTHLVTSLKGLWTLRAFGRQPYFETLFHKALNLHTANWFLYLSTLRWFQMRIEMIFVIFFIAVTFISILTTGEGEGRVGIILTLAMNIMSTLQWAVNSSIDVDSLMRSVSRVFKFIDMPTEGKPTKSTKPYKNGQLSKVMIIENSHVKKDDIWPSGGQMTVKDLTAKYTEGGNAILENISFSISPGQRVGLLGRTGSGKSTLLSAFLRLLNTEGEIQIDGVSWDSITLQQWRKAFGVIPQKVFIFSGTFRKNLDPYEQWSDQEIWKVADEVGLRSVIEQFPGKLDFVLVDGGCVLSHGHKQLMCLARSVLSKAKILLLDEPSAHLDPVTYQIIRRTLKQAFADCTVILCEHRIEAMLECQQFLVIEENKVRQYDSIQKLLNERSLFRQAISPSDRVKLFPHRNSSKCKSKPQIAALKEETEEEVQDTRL

| SMILES | Nauc @ 3 μM | Nauc @ 10 μM |
| --- | --- | --- |
| O=C1C2C(Cc3c(F)cccc3Cl)NC3(C(=O)Nc4c(Cl)cc(Cl)cc43)C2C(=O)N1c1cc(Cl)cc(Cl)c1 (stereo not drawn) [Example 217] | ++ (NAUC “++” refers to an observed NAUC 170-140% of positive control) | ++ (NAUC “++” refers to an observed NAUC 170-140% of positive control) |
| COc1c(Cl)cc(N2C(=O)C3C4CC(F)(F)CN4C4(C(=O)Nc5c(Cl)cc(Cl)cc54)C3C2=O)cc1Cl (single isomer, unassigned) [Example 221] | +++ (NAUC “+++” refers to an observed NAUC >170% of positive control) | +++ (NAUC “+++” refers to an observed NAUC >170% of positive control) |
| O=C1C2C3CCCN3C3(C(=O)Nc4c(Cl)cc(Cl)cc43)C2C(=O)N1c1ncc(Cl)s1 (stereo not drawn) [Example 229] | + (NAUC “+” refers to an observed NAUC <140% of positive control) | ++ (NAUC “++” refers to an observed NAUC 170-140% of positive control) |
| C[C@]1(F)CC2C3C(=O)N(c4cc(Cl)cc(Cl)c4)C(=O)C3C3(C(=O)Nc4c(Cl)cc(Cl)cc43)N2C1 (stereo partly drawn) [Example 10, (7′S)-5,7-dichloro-2′-(3,5-dichlorophenyl)-7′-fluoro-7′-methyl-3a′,6′,7′,8′,8a′,8b′-hexahydro-1′H-spiro[indoline-3,4′-pyrrolo[3,4-a]pyrrolizine]-1′,2,3′(2′H)-trione] | +++ (NAUC “+++” refers to an observed NAUC >170% of positive control) | +++ (NAUC “+++” refers to an observed NAUC >170% of positive control) |
| Nc1ccc(CC2NC3(C(=O)Nc4c(Cl)cc(Cl)cc43)C3C(=O)N(c4cc(Cl)cc(Cl)c4)C(=O)C23)cc1 (stereo not drawn) [Example 207] | ++ (NAUC “++” refers to an observed NAUC 170-140% of positive control) | + (NAUC “+” refers to an observed NAUC <140% of positive control) |
| COc1c(Cl)cc(N2C(=O)C3C4CC(C(F)(F)F)CN4C4(C(=O)Nc5c(Cl)cc(Cl)cc54)C3C2=O)cc1Cl (stereo not drawn) [Example 213] | ++ (NAUC “++” refers to an observed NAUC 170-140% of positive control) | +++ (NAUC “+++” refers to an observed NAUC >170% of positive control) |
| O=C1C2C3C[C@H](F)CN3C3(C(=O)Nc4c(Cl)cc(Cl)cc43)C2C(=O)N1c1cc(Cl)cc(Cl)c1O (stereo partly drawn) [Example 95] | ++ (NAUC “++” refers to an observed NAUC 170-140% of positive control) | + (NAUC “+” refers to an observed NAUC <140% of positive control) |
| C[C@]1(OCc2ccccc2)CC2C3C(=O)N(c4cc(Cl)cc(Cl)c4)C(=O)C3C3(C(=O)Nc4c(Cl)cc(Cl)cc43)N2C1 (single isomer, unassigned) [Example 240] | +++ (NAUC “+++” refers to an observed NAUC >170% of positive control) | + (NAUC “+” refers to an observed NAUC <140% of positive control) |
| O=C1C2C(Cc3c[nH]c4ccccc34)NC3(C(=O)Nc4c(Cl)cc(Cl)cc43)C2C(=O)N1c1cc(Cl)cc(Cl)c1 (stereo not drawn) [Example 155] | ++ (NAUC “++” refers to an observed NAUC 170-140% of positive control) | + (NAUC “+” refers to an observed NAUC <140% of positive control) |
| C=C1CC2C3C(=O)N(c4cc(Cl)cc(Cl)c4)C(=O)C3C3(C(=O)Nc4c(Cl)cc(Cl)cc43)N2C1 (stereo not drawn) [Example 55] | + (NAUC “+” refers to an observed NAUC <140% of positive control) | +++ (NAUC “+++” refers to an observed NAUC >170% of positive control) |
| Cc1csc(N2C(=O)C3C4CCCN4C4(C(=O)Nc5c(Cl)cc(Cl)cc54)C3C2=O)n1 (stereo not drawn) [Example 101] | + (NAUC “+” refers to an observed NAUC <140% of positive control) | +++ (NAUC “+++” refers to an observed NAUC >170% of positive control) |
| C[C@]1(O)CC2C3C(=O)N(c4cccc(C(F)(F)F)n4)C(=O)C3C3(C(=O)Nc4c(Cl)cc(Cl)cc43)N2C1 (stereo partly drawn) [Example 253] | + (NAUC “+” refers to an observed NAUC <140% of positive control) | ++ (NAUC “++” refers to an observed NAUC 170-140% of positive control) |
